# Values of other authors, collected in patent publication US7419995B2, “N-substituted benzimidazoyl c-Kit inhibitors and combinatorial benzimidazole library” (OSI Pharmaceuticals, Inc., priority 2004, dated 2008).
# Counter-ions that a name gives are not always drawn.
# Test system: MO7e human leukemia cells
compound,measurement,setting,value
"Cc1ccc(NC(=O)c2ccc(CN3CCN(C)CC3)cc2)cc1Nc1nccc(-c2cccnc2)n1 [Gleevec, imatinib mesylate]",GM-CSF stimulated growth of MO7e cells,GM-CSF stimulated,not affected
same,Kit ligand-stimulated growth of MO7e cells,Kit ligand-stimulated,inhibited
same,apoptosis of MO7e cells,Kit ligand-stimulated conditions,induces apoptosis
